Test system: H460 human lung cancer cells
Test: Flow cytometry cell cycle arrest analysis after cyclin B1 siRNA delivery
Type: cell-based
Details: [siRNA]=200 nM, [compound b]=100 ng/mL, 24 h, no fetal bovine serum, n=3
Protocol: Flow cytometry for cell cycle analysis. Human lung cancer cells, H460, at 2×10^5 cells/mL were treated with cyclin B1siRNA alone (200 nM) or compound b/siRNA complex ([compound b]=100 ng/mL, [cyclin B1 siRNA]=200 nM) in RPMI 1640 medium for […] at 37° C., 5% CO2(g). After the treatments, cells were washed twice in PBS buffer solution and fixed in cold. PBS solution containing 75% ethanol. After washing with PBS and centrifugation at 1,500 rpm for 5 min, cells were stained with propidium iodide (PI) and analyzed by FACS Calibur (BD PharMingen, N.J., USA) using WinMDI 2.9 analysis software. The cyclic B1 siRNA sequence is 5′-[…]-3 (SEQ ID NO: 1) for sense and 5′-[…]-3 (SEQ ID NO: 2) (NCBI accession number of cyclin B1: NM031966) for anti-sense.
PEI has a high cationic density and can associate with nucleic acids such as siRNA to form a cationic polyplex. The efficiency of the PEI according to the invention as a delivery vehicle for siRNA was examined. Compound b (LPEI) was used to associate with a siRNA for silencing Cyclin B1, which is an indispensable protein for cell mitosis. […] The population proportions of cells were analyzed and summarized in histogram profile (FIG. 4E). […]
H460 lung cancer cells were treated with compound b/siRNA complex for 24 h, and the cell cycle distribution was examined by flow cytometry. […] FL2A: fluorescence pulse area. *p<0.05.

siRNA alone: cyclin B1 siRNA, sense SEQ ID NO: 1, anti-sense SEQ ID NO: 2 (sense ACAUGAGAGCCAUCCUAAUUGTT; antisense CAAUUAGGAUGGCUCUCAUGUTT; chemistry not given here)
population in G2/M phase of the cell cycle, increase compared with control: 5.52%±0.406

From US20120052573A1, “ONE-POT SYNTHESIS OF LINEAR-LIKE POLYETHYLENIMINE FOR INTRACELLULAR IMAGING AND NUCLEIC ACID DELIVERY” (NATIONAL HEALTH RESEARCH INSTITUTES, priority 2010, published 2012)
